The results in this text go back to ChEMBL document CHEMBL4219073, “Development of selective inhibitors for the treatment of rheumatoid arthritis: (R)-3-(3-(Methyl(7H-pyrrolo[2,3-d]pyrimidin-4-yl)amino)pyrrolidin-1-yl)-3-oxopropanenitrile as a JAK1-selective inhibitor” (Bioorg Med Chem, 2018).

In general, IC50 refers to the concentration needed to halve the response being measured. High values mean lower potency, low ones higher potency. The amount remaining is the share of the starting amount still present when the sample was taken.

The target of data set [1] is Tyrosine-protein kinase JAK2 (Homo sapiens, UniProt O60674). The class given is ADME.
Description: Inhibition of recombinant human JAK2 (808-end residues) in presence of ATP
The target of data set [2] is Tyrosine-protein kinase JAK1 (Homo sapiens, UniProt P23458).
Description: Inhibition of recombinant human JAK1 (866-end residues) in presence of ATP
Data set [3] in a line: in vitro. Particulars: dog, microsomes.
Description: Metabolic stability in dog liver microsomes assessed as parent compound remaining after 30 mins
The nature of data set [4]: in vitro. Particulars: mouse, microsomes.
Description: Metabolic stability in mouse liver microsomes assessed as parent compound remaining after 30 mins
Data set [5] is described as follows: in vitro. Particulars: human, microsomes.
Description: Metabolic stability in human liver microsomes assessed as parent compound remaining after 30 mins
Data set [6] can be described thus: in vitro. Particulars: rat, microsomes.
Description: Metabolic stability in rat liver microsomes assessed as parent compound remaining after 30 mins

Tyrosine-protein kinase JAK2, sequence (O60674 whole entry): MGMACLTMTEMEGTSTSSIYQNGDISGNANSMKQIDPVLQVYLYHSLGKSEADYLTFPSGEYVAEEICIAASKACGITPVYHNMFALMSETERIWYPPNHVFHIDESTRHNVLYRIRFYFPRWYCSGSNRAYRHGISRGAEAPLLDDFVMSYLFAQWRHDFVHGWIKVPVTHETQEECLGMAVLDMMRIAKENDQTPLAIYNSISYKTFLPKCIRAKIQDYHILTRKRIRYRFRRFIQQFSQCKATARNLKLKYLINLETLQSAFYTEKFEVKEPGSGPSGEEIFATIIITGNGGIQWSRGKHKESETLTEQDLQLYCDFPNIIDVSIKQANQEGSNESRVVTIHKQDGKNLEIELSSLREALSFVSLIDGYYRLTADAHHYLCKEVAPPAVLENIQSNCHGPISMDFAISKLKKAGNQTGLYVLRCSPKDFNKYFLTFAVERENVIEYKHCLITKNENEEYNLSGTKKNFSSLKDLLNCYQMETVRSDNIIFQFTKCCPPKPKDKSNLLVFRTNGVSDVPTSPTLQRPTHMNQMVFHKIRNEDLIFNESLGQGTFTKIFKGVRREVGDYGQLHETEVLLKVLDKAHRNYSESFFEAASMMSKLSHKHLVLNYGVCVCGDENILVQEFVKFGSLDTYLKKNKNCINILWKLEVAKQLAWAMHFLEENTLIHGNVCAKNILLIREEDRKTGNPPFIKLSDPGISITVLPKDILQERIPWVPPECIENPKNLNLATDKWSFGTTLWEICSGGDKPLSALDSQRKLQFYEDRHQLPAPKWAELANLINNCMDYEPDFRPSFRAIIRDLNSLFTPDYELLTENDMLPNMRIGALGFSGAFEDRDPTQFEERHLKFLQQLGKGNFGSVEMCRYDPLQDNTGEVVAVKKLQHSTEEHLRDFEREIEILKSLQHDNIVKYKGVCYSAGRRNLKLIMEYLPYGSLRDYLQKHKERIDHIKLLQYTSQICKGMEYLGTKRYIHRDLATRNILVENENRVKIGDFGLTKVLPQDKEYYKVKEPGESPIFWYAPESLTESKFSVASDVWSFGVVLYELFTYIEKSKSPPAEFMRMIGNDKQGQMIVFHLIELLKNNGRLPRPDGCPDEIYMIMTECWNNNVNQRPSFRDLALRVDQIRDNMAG
Tyrosine-protein kinase JAK1, sequence (P23458 whole entry): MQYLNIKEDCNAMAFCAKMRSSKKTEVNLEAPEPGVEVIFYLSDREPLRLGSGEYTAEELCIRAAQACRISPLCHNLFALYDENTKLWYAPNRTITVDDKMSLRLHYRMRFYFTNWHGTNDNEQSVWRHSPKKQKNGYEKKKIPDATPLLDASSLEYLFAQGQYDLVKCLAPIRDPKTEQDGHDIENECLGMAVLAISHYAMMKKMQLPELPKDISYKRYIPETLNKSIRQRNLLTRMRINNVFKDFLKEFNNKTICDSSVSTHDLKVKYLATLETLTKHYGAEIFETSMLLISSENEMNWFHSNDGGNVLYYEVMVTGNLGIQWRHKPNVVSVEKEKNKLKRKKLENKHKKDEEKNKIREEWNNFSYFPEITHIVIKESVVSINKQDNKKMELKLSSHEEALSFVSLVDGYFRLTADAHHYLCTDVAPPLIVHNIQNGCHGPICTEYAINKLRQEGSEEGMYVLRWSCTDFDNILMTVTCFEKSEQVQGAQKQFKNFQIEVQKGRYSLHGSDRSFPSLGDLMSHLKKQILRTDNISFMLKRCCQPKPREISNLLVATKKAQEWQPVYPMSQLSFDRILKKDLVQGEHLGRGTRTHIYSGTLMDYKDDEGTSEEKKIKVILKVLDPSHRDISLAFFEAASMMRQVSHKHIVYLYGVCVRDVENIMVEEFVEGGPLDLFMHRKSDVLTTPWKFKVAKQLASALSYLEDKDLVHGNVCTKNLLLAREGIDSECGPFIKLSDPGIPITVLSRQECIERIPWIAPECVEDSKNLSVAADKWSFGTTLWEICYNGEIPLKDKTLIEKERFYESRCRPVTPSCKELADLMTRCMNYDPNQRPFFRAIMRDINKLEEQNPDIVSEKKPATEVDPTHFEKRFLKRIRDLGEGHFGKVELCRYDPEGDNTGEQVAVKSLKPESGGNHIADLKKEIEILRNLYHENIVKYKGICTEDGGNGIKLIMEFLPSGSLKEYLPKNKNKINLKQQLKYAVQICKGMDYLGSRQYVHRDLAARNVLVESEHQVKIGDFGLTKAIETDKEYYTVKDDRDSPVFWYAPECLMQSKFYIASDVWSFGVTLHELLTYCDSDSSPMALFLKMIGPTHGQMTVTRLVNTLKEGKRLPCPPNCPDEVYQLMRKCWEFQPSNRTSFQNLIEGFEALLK

For `CN(c1ncnc2[nH]ccc12)[C@@H]1CCN(S(=O)(=O)c2cccc(F)c2)C1`, the IC50 stood at 53 nM in data set [1] and 14 nM in data set [2].

In the case of `CN(c1ncnc2[nH]ccc12)[C@@H]1CCN(S(=O)(=O)C(F)(F)F)C1`, the results for the half-maximal inhibitory concentration (IC50) in data set [1] and in data set [2] were 4500 nM and 140 nM, respectively.

Regarding `CCCCN1CC[C@@H](N(C)c2ncnc3[nH]ccc23)C1`, the IC50 in data set [1] was found to be 27000 nM; in data set [2], 740 nM.

With `CN(c1ncnc2[nH]ccc12)[C@@H]1CCN(S(=O)(=O)c2ccccc2F)C1`, the IC50 in data set [1] was 130 nM; in data set [2] it was 25 nM.

On to `CN(c1ncnc2[nH]ccc12)[C@H]1CN(C(=O)CC#N)CC12CCC2`, for which the IC50 in data set [1] came to 450 nM; in data set [2], 16 nM.

As to `CC(C)CC(=O)N1CC[C@@H](N(C)c2ncnc3[nH]ccc23)C1`, the IC50 was found to be 3900 nM in data set [1] and 70 nM in data set [2].

For `CN(c1ncnc2[nH]ccc12)[C@@H]1CCN(S(=O)(=O)c2ccccc2)C1`, the IC50 was found to be 430 nM in data set [1] and 28 nM in data set [2].

On to `CN(c1ncnc2[nH]ccc12)[C@@H]1CCN(S(=O)(=O)N2CCCCC2)C1`, for which the results for the IC50 in data set [1] and in data set [2] were 3900 nM and 66 nM, respectively.

For the compound `CN(c1ncnc2[nH]ccc12)[C@@H]1CCN(S(=O)(=O)c2ccccc2C#N)C1`, the IC50 was 370 nM in data set [1] and 52 nM in data set [2].

For the compound `CC(C)S(=O)(=O)N1CC[C@@H](N(C)c2ncnc3[nH]ccc23)C1`, the IC50 is 4800 nM in data set [1] and 170 nM in data set [2].

For `CN(c1ncnc2[nH]ccc12)[C@@H]1CCN(S(=O)(=O)c2ccc(C#N)cc2)C1`, the IC50 was found to be 1200 nM in data set [1] and 11 nM in data set [2].

On to `N#Cc1cccc(S(=O)(=O)N2CC[C@@H](Nc3ncnc4[nH]ccc34)C2)c1`, for which the IC50 amounted to 1900 nM in data set [1] and 510 nM in data set [2].

As to `CN(c1ncnc2[nH]ccc12)[C@@H]1CCN(S(=O)(=O)c2ccc(C(F)(F)F)cc2)C1`, the amount remaining at 0.5 h is 14.2% in data set [3], 8.4% in data set [4], 21% in data set [5] and 11.4% in data set [6]. The IC50 is 3400 nM in data set [1] and 9.5 nM in data set [2].

`CN(c1ncnc2[nH]ccc12)[C@@H]1CCN(S(=O)(=O)c2ccccc2[N+](=O)[O-])C1`: the IC50 worked out at 1100 nM in data set [1] and 110 nM in data set [2].

`CCN(c1ncnc2[nH]ccc12)[C@@H]1CCN(S(=O)(=O)c2cccc(C#N)c2)C1`: the IC50 in data set [1] was found to be 110 nM; in data set [2] it was 19 nM.

For the compound `CN(c1ncnc2[nH]ccc12)[C@@H]1CCN(C(=O)CN=[N+]=[N-])C1`, the IC50 in data set [1] was 170 nM; in data set [2], 10 nM.

As for `CN(c1ncnc2[nH]ccc12)[C@@H]1CCN(CCC#N)C1`, the values for the IC50 in data set [1] and in data set [2] were 1900 nM and 53 nM, respectively.

Consider `CN(c1ncnc2[nH]ccc12)[C@H]1CN(C(=O)CC#N)CC1(C)C`, for which the IC50 worked out at 5900 nM in data set [1] and 260 nM in data set [2].

For `CC(C)COC(=O)N1CC[C@@H](N(C)c2ncnc3[nH]ccc23)C1`, the figures for the IC50 in data set [1] and in data set [2] were 4300 nM and 110 nM, respectively.

Consider `CCCS(=O)(=O)N1CC[C@@H](N(C)c2ncnc3[nH]ccc23)C1`, for which the IC50 in data set [1] amounted to 460 nM; in data set [2], 34 nM.

For `CN(c1ncnc2[nH]ccc12)[C@@H]1CCN(S(=O)(=O)c2cccc(C#N)c2)C1`, the amount remaining at 0.5 h in data set [3] amounted to 31.6%; in data set [4], 10%; in data set [5], 26.3%; in data set [6], 3.7%. Further, the figures for the IC50 in data set [1] and in data set [2] were 57 nM and 4.1 nM, respectively.

On to `COc1ccc(S(=O)(=O)N2CC[C@@H](N(C)c3ncnc4[nH]ccc34)C2)cc1`, for which the IC50 in data set [1] came to 1500 nM; in data set [2] it was 26 nM.

Turning to `N#Cc1cccc(S(=O)(=O)N2CC[C@@H](N(CC3CC3)c3ncnc4[nH]ccc34)C2)c1`, the IC50 in data set [1] came out at 1400 nM; in data set [2], 17 nM.

With `CCS(=O)(=O)N1CC[C@@H](N(C)c2ncnc3[nH]ccc23)C1`, the values for the IC50 in data set [1] and in data set [2] were 2400 nM and 79 nM, respectively.

Consider `CCN(c1ncnc2[nH]ccc12)[C@@H]1CCN(C(=O)CC#N)C1`, for which the values for the IC50 in data set [1] and in data set [2] were 1300 nM and 62 nM, respectively.

As for `CN(c1ncnc2[nH]ccc12)[C@@H]1CCN(S(=O)(=O)c2ccc(F)cc2)C1`, the values for the IC50 in data set [1] and in data set [2] were 110 nM and 11 nM, respectively.

Turning to `CN(c1ncnc2[nH]ccc12)[C@@H]1CCN(S(C)(=O)=O)C1`, the IC50 in data set [1] was 4700 nM; in data set [2] it was 70 nM.

With `CN(c1ncnc2[nH]ccc12)[C@@H]1CCN(S(=O)(=O)c2ccc([N+](=O)[O-])cc2)C1`, the IC50 in data set [1] was determined as 89 nM; in data set [2] it was 3.6 nM.

With `CN(c1ncnc2[nH]ccc12)[C@@H]1CCN(S(=O)(=O)N2CCOCC2)C1`, the IC50 was 4400 nM in data set [1] and 270 nM in data set [2].

Turning to `CN(c1ncnc2[nH]ccc12)[C@@H]1CCN(C(=O)Nc2ccccc2)C1`, the IC50 amounted to 550 nM in data set [1] and 22 nM in data set [2].

Regarding `Cc1ccc(S(=O)(=O)N2CC[C@@H](N(C)c3ncnc4[nH]ccc34)C2)cc1`, the values for the IC50 in data set [1] and in data set [2] were 1800 nM and 19 nM, respectively.

On to `CN(c1ncnc2[nH]ccc12)[C@@H]1CCN(S(=O)(=O)c2cccc([N+](=O)[O-])c2)C1`, for which the share remaining at 0.5 h in data set [3] worked out at 10.4%; in data set [4] it was 3.1%; in data set [5], 13.4%; in data set [6], 2.5%. The IC50 in data set [1] came out at 18 nM; in data set [2], 1.9 nM.

For the compound `Cc1cccc(S(=O)(=O)N2CC[C@@H](N(C)c3ncnc4[nH]ccc34)C2)c1`, the figures for the IC50 in data set [1] and in data set [2] were 730 nM and 29 nM, respectively.

`CN(c1ncnc2[nH]ccc12)[C@@H]1CCN(S(=O)(=O)c2ccc3ccccc3c2)C1`: the IC50 in data set [1] was 690 nM; in data set [2] it was 13 nM.

As to `N#CCC(=O)N1CC[C@@H](N(CC2CC2)c2ncnc3[nH]ccc23)C1`, the figures for the IC50 in data set [1] and in data set [2] were 1700 nM and 160 nM, respectively.

As for `CN(c1ncnc2[nH]ccc12)[C@@H]1CCN(S(=O)(=O)c2cn(C)cn2)C1`, the IC50 in data set [1] was determined as 19000 nM; in data set [2] it was 650 nM.
